Source: EP0368756A1, “Dibenzocycloheptene derivatives, process for their preparation and their use as medicaments” (ROUSSEL-UCLAF, priority 1988, dated 1990)

Columns and labels:
[1] = system: couche CA₁ de l'hippocampe; test: Neuronal protective effect in the hippocampus after stereotaxic quinolinic acid injection; type: in vivo; conditions: anaesthetised rat; 20 mg/kg intraperitoneal 30 min before quinolinic acid (5 micrograms) into right hippocampus; cresyl violet histology one week later
Procedure: Recherche de l'effet protecteur neuronal dans l'hippocampe.
L'essai a été réalisé chez le rat anesthésié. Une injection stéréotaxique d'acide quinolinique (5 microgrammes) est réalisée dans l'hippocampe droit. Le produit à étudier (ou le véhicule seul pour le lot d'animaux témoins) est administré par voie intrapéritonéale 30 minutes auparavant.
Une semaine plus tard, les cerveaux sont prélevés et coupés en tranches fines. Les tranches sont colorées au crésyl violet et photographiées.
Chez les animaux témoins, l'acide quinolinique détruit la couche CA₁ de l'hippocampe droit tandis que l'hippocampe gauche (contrôle) non injecté, est intacte. L'hippocampe gauche des animaux n'a reçu aucun traitement. Chez les animaux ayant reçu une administration de 20 mg/kg du produit de l'exemple 7, par voie intrapéritonéale, la couche CA₁ de l'hippocampe droit est protégée donc identique à celle de l'hippocampe gauche qui n'a pas reçu d'injection d'acide quinolinique.

[2] = system: convulsions toniques entrainées par le pentétrazol; test: Anticonvulsant activity against pentetrazol-induced tonic convulsions; type: in vivo, souris; conditions: sc; mouse; pentetrazol 160 mg/kg s.c. given 1 hour after the product; tonic convulsions noted for 30 minutes; read-out: DA₅₀ ou dose qui diminue de 50 % le nombre de convulsions toniques entrainées par le pentétrazol
Procedure: Activité anticonvulsivante chez la souris.
L'essai est réalisé sur des lots de 10 souris. L'agent convulsivant est le pentétrazol, en solution aqueuse à la dose de 160 mg/kg s.c. sous un volume de 0,5 ml/20 g, administré 1 heure après le produit de l'exemple 7. Les animaux sont isolés et les convulsions toniques sont notées pendant 30 minutes.
La DA₅₀ ou dose qui diminue de 50 % le nombre de convulsions toniques entrainées par le pentétrazol est de 2,3 mg/kg.

## Nc1ccc2c(c1)C1Cc3ccccc3C2N1 (centres unmarked) [exemple 7, 8-amino 10,11-dihydro 5,10-imino 5H-dibenzo[a,d]-cycloheptène]
[1]
  effet protecteur neuronal dans l'hippocampe: protégée
[2]
  ED50: 2.3 mg/kg
